Measurements published in BindingDB's records for doi:10.1016/0960-894X(95)00351-S (1995).

Assay: Inhibition of platelet aggregation using human platelet rich plasma (hPRP) assay (200microL, 2-3 x 10e 8 platelets/mL, n=1)

IC50	Compound
20 nM	CC(C)[C@H]1NC(=O)c2cccc(c2)CNC(=O)[C@H](CC(=O)O)NC(=O)CNC(=O)[C@H](CCCNC(=N)N)N(C)C1=O [DMP-757]
100 nM	CC(C)[C@H]1NC(=O)c2ccc([nH]2)CNC(=O)[C@H](CC(=O)O)NC(=O)CNC(=O)[C@H](CCCNC(=N)N)N(C)C1=O [[(5S,11S,14S)-11-(3-Guanidino-propyl)-14-isopropyl-12-methyl-4,7,10,13,16-pentaoxo-3,6,9,12,15,20-hexaaza-bicyclo[15.2.1]icosa-1(19),17-dien-5-yl]-acetic acid]
50 nM	CC(C)[C@H]1NC(=O)C2=CC=C(CNC(=O)[C@H](CC(=O)O)NC(=O)CNC(=O)[C@H](CCCNC(=N)N)N(C)C1=O)O2 [[(5S,11S,14S)-11-(3-Guanidino-propyl)-14-isopropyl-12-methyl-4,7,10,13,16-pentaoxo-20-oxa-3,6,9,12,15-pentaaza-bicyclo[15.2.1]icosa-1(19),17-dien-5-yl]-acetic acid]
200 nM	CC(C)[C@H]1NC(=O)/C=C\CCNC(=O)[C@H](CC(=O)O)NC(=O)CNC(=O)[C@H](CCCNC(=N)N)N(C)C1=O [[(Z)-(3R,9R,12R)-9-(3-Guanidino-propyl)-12-isopropyl-10-methyl-2,5,8,11,14-pentaoxo-1,4,7,10,13pentaaza-cyclooctadec-15-en-3-yl]-acetic acid]

The next lines start with the molecule.

Compound	IC50
CC(C)[C@H]1NC(=O)Cc2csc(n2)NC(=O)[C@H](CC(=O)O)NC(=O)CNC(=O)[C@H](CCCN=C(N)N)N(C)C1=O [[(4S,10S,13S)-10-(3-Guanidino-propyl)-13-isopropyl-11-methyl-3,6,9,12,15-pentaoxo-19-thia-2,5,8,11,14,20-hexaaza-bicyclo[15.2.1]icosa-1(20),17-dien-4-yl]-acetic acid]	400 nM
CC(C)[C@H]1NC(=O)c2cccc(n2)CNC(=O)[C@H](CC(=O)O)NC(=O)CNC(=O)[C@H](CCCN=C(N)N)N(C)C1=O [[(5S,11S,14S)-11-(3-Guanidino-propyl)-14-isopropyl-12-methyl-4,7,10,13,16-pentaoxo-3,6,9,12,15,21-hexaaza-bicyclo[15.3.1]henicosa-1(21),17,19-trien-5-yl]-acetic acid]	2000 nM
CC(C)[C@H]1NC(=O)C2=CC=C(CNC(=O)[C@H](CC(=O)O)NC(=O)CNC(=O)[C@H](CCCN=C(N)N)N(C)C1=O)S2 [[(5S,11S,14S)-11-(3-Guanidino-propyl)-14-isopropyl-12-methyl-4,7,10,13,16-pentaoxo-20-thia-3,6,9,12,15-pentaaza-bicyclo[15.2.1]icosa-1(19),17-dien-5-yl]-acetic acid]	100 nM
CC(C)[C@H]1NC(=O)c2cccc(c2F)CNC(=O)[C@H](CC(=O)O)NC(=O)CNC(=O)[C@H](CCCN=C(N)N)N(C)C1=O [[(5S,11S,14S)-21-Fluoro-11-(3-guanidino-propyl)-14-isopropyl-12-methyl-4,7,10,13,16-pentaoxo-3,6,9,12,15-pentaaza-bicyclo[15.3.1]henicosa-1(20),17(21),18-trien-5-yl]-acetic acid]	20 nM
CC(C)[C@H]1NC(=O)C/C=C\CNC(=O)[C@H](CC(=O)O)NC(=O)CNC(=O)[C@H](CCCN=C(N)N)N(C)C1=O [[(Z)-(3R,9R,12R)-9-(3-Guanidino-propyl)-12-isopropyl-10-methyl-2,5,8,11,14-pentaoxo-1,4,7,10,13pentaaza-cyclooctadec-16-en-3-yl]-acetic acid]	200 nM
